ChEMBL document CHEMBL6109144, “Discovery of New Difluorocyclobutyl Derivatives as Effective Glucagon-Like Peptide-1 Receptor Agonists with Reduced hERG Inhibitory Activities” (J Med Chem, 2025)
Activity calls are given as the source filed them. The rule behind the calls is not given here.

Assays:
[1] = Cmax in Sprague-Dawley rat at 5 mg/kg, po measured up to 24 hrs by LC-MS/MS analysis; type: ADME, organism-based; conditions: in vivo
[2] = in vivo; conditions: Sprague-Dawley, rat, po, 5 mg/kg
[3] = molecular target: T1, Glucagon-like peptide 1 receptor (Homo sapiens, UniProt P43220); test: Agonist activity at N-terminal hemagglutinin-tagged human GLP-1R expressed in CHO cells co-transfected with pcDNA3.0 assessed as increase in intracellular cAMP accumulation incubated for 30 mins by microplate reader analysis; type: functional, cell-based
[4] = AUC (0 to infinity) in Sprague-Dawley rat at 5 mg/kg, po measured up to 24 hrs by LC-MS/MS analysis; type: ADME, organism-based; conditions: in vivo
[5] = molecular target: T2, hERG (KCNH2) (Homo sapiens, UniProt Q12809); test: Inhibition of hERG at 1 uM at -80 mV holding potential by whole-cell patch clamp analysis relative to control; type: toxicity
[6] = molecular target: T2, hERG (KCNH2); test: Inhibition of hERG at 10 uM at -80 mV holding potential by whole-cell patch clamp analysis relative to control; type: toxicity
[7] = Half life in Sprague-Dawley rat at 5 mg/kg, po measured up to 24 hrs by LC-MS/MS analysis; type: ADME, organism-based; conditions: in vivo
[8] = Observed apparent oral clearance in Sprague-Dawley rat at 5 mg/kg, po measured up to 24 hrs by LC-MS/MS analysis; type: ADME, organism-based; conditions: in vivo
[9] = Fraction of the dose absorbed in Sprague-Dawley rat at 5 mg/kg, po measured up to 24 hrs by LC-MS/MS analysis; type: ADME, organism-based; conditions: in vivo, read-out: Fabs
[10] = molecular target: T1, Glucagon-like peptide 1 receptor; test: Binding affinity to GLP-1R (unknown origin) at 500 nM measured at 30 to 120 mins by HTRF analysis relative to control; conditions: time 30-120 min
[11] = molecular target: T1, Glucagon-like peptide 1 receptor; test: Binding affinity to GLP-1R (unknown origin) at 5000 nM measured at 30 to 120 mins by HTRF analysis relative to control; conditions: filed as agonist, time 30-120 min
[12] = tested on: Rattus norvegicus; test: Antidiabetic activity in human GLP-1R knockin po dosed Sprague-Dawley rat model assessed as increase in glucose-simulated insulin secretion pretreated with compound for 15 mins followed by D-glucose administration and measured after 30 mins by ELISA analysis; type: functional, organism-based; conditions: dose 1-10 mg/kg, time 45.0 min
[13] = molecular target: T1, Glucagon-like peptide 1 receptor; test: Agonist activity at human GLP-1R expressed in HEK293 cells assessed as beta-arrestin2 recruitment incubated for 5 mins by bioluminescence based Envision multiplate reader analysis; type: functional, cell-based
[14] = tested on: Rattus norvegicus; test: Antidiabetic activity in human GLP-1R knockin Sprague-Dawley rat model assessed as increase in rate of insulin secretion at 1 to 10 mg/kg, po pretreated with compound for 15 mins by IPGTT analysis; type: functional, organism-based; conditions: dose 1-10 mg/kg
[15] = Induction of insulin release in human EndoC-betaH5 cells incubated for 1 hr by ELISA analysis; type: functional, cell-based; conditions: EndoC-betaH5, 1 h
[16] = molecular target: Glucagon receptor (Homo sapiens, UniProt P47871); test: Agonist activity at N-terminal HA-tagged human GCGR expressed in CHO cells co-transfected with pcDNA3.0 assessed as effect on cAMP accumulation incubated for 30 mins by microplate reader analysis; type: functional, cell-based
[17] = molecular target: T3, Gastric inhibitory polypeptide receptor (Homo sapiens, UniProt P48546); test: Agonist activity at N-terminal HA-tagged human GIPR expressed in CHO cells co-transfected with pcDNA3.0 assessed as effect on cAMP accumulation incubated for 30 mins by microplate reader analysis; type: functional, cell-based
T3 sequence (P48546 whole entry): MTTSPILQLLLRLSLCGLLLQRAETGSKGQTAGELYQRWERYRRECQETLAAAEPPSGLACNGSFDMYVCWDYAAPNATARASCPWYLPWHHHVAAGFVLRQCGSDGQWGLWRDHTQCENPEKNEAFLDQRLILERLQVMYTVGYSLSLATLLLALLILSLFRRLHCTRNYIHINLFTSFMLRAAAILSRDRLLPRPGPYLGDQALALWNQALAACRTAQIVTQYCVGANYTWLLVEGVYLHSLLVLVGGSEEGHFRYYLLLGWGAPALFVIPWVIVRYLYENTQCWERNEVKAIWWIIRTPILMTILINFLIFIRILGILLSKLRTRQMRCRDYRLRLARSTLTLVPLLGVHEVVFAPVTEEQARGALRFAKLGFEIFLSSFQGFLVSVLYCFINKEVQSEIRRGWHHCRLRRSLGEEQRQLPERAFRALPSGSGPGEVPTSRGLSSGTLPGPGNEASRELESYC

[18] = tested on: Rattus norvegicus; test: Antidiabetic activity in human GLP-1R knockin Sprague-Dawley rat model assessed as increase in rate of glucose disappearance at 1 to 10 mg/kg, po pretreated with compound for 15 mins by IPGTT analysis; type: functional, organism-based; conditions: dose 1-10 mg/kg
[19] = molecular target: T4, Glucagon-like peptide 2 receptor (Homo sapiens, UniProt O95838); test: Agonist activity at N-terminal HA-tagged human GLP-2R expressed in CHO cells co-transfected with pcDNA3.0 assessed as effect on cAMP accumulation incubated for 30 mins by microplate reader analysis; type: functional, cell-based
T4 sequence (O95838 whole entry): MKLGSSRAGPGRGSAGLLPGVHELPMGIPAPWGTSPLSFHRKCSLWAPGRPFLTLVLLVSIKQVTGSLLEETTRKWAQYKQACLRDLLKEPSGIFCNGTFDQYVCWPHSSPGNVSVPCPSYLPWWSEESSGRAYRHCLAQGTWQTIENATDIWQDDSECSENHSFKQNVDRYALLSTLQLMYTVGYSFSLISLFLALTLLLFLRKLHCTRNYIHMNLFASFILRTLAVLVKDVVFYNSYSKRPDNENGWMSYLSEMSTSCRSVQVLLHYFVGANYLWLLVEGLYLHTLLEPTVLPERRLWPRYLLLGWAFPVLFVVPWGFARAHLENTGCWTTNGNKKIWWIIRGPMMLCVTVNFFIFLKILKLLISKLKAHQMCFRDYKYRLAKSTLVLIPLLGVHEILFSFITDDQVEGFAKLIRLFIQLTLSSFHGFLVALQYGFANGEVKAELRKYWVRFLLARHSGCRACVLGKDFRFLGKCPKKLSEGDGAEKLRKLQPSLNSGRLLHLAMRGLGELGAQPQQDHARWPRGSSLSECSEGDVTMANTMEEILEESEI

[20] = molecular target: T1, Glucagon-like peptide 1 receptor; test: Agonist activity at human GLP-1R expressed in HEK293 cells assessed as beta-arrestin1 recruitment incubated for 5 mins by bioluminescence based Envision multiplate reader analysis; type: functional, cell-based
[21] = tested on: Rattus norvegicus; test: Antidiabetic activity in human GLP-1R knockin Sprague-Dawley rat model assessed as increase in rate of insulin secretion at 10 mg/kg, po pretreated with compound for 15 mins by IPGTT analysis; type: functional, organism-based
[22] = tested on: Rattus norvegicus; test: Antidiabetic activity in human GLP-1R knockin Sprague-Dawley rat model assessed as increase in rate of glucose disappearance at 10 mg/kg, po pretreated with compound for 15 mins by IPGTT analysis; type: functional, organism-based

T2 sequence (Q12809 whole entry): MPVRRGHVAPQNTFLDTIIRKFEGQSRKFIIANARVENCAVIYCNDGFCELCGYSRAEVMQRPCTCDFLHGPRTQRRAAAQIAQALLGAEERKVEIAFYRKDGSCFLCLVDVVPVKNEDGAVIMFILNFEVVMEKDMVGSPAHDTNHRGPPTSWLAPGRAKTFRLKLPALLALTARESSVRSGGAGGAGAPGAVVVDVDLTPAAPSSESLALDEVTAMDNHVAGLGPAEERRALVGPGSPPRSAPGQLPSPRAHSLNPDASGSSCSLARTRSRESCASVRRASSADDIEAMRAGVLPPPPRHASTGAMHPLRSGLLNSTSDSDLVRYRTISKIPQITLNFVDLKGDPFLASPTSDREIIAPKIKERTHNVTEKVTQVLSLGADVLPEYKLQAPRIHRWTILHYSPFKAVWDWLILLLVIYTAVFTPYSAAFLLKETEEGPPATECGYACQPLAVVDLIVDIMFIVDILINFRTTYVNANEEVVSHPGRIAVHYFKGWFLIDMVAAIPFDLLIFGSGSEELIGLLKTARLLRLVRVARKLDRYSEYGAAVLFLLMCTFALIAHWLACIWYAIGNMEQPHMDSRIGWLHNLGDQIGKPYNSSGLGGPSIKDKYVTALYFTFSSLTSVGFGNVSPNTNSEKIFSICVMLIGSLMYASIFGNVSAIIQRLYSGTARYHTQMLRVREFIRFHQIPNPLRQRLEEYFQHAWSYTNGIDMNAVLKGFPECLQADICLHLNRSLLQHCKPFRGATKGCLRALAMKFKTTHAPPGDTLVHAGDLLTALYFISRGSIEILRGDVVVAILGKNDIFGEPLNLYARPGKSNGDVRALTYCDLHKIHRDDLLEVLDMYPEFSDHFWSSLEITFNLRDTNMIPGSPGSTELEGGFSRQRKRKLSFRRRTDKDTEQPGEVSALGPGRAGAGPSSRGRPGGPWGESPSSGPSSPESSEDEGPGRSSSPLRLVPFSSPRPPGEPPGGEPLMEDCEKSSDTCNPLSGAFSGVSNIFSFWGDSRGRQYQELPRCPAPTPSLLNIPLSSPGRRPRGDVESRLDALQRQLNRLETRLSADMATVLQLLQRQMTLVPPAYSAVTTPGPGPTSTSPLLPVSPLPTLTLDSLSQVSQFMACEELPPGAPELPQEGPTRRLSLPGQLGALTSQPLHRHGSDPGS
T1 sequence (P43220 whole entry): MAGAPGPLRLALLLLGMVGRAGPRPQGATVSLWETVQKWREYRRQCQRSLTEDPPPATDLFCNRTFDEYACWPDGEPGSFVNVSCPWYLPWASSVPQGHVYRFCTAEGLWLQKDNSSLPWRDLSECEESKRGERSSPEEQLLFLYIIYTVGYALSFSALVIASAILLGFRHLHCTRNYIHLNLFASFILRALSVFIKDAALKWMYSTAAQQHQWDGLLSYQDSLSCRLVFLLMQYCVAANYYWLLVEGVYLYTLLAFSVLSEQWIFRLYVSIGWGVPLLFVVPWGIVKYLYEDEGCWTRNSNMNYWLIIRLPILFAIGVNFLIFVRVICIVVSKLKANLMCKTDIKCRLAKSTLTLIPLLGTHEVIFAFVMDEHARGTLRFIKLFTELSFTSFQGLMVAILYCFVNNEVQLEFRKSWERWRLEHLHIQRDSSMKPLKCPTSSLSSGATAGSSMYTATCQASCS
Chain of Glucagon receptor (P47871 whole entry): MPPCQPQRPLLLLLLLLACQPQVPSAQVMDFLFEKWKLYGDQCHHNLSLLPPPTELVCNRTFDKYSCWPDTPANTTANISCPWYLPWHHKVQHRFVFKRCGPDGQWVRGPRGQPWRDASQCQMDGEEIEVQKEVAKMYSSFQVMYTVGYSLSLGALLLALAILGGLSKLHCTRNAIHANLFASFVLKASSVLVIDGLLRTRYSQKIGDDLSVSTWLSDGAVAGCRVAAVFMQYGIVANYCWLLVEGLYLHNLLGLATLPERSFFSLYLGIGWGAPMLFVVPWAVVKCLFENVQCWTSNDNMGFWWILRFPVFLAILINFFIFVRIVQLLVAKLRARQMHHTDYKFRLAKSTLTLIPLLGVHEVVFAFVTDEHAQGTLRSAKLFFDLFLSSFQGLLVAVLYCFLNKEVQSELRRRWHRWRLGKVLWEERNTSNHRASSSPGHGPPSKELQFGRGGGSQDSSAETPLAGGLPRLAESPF

| Structure (SMILES) | Cmax [1] | Tmax at 24 h [2] | EC50 [3] | AUC(0-inf) [4] | half-life [7] | CL/F [8] | Fa at 24 h [9] | Activity [11] | Activity ([10]; filed as agonist) | inhibition at 1 µM [5] | inhibition at 10 µM [6] | further results |
| --- | --- | --- | --- | --- | --- | --- | --- | --- | --- | --- | --- | --- |
| O=C(O)c1ccc2nc(Cc3ccc(-c4cccc(OCc5ccc(C6CC(F)(F)C6)cc5F)n4)cc3F)n(C[C@@H]3CCO3)c2c1 | 33.6 ng/mL | 1.33 h | 0.031 nM | 91 ng·h/mL | 2.19 h | 963 mL/min/kg | 2.86% |  |  | 0.58% | 4.76% |  |
| O=C(O)c1ccc2nc(Cc3ccc(-c4cccc(OCc5ccc(C6CC(F)(F)C6)cc5F)n4)cc3)n(C[C@@H]3CCO3)c2c1 |  |  | 0.093 nM |  |  |  |  | 73.5% |  |  |  | Activity [10]: 29.5% |
| O=C(O)c1ccc2nc(CN3CC=C(c4cccc(OCc5ccc(C6CC(F)(F)C6)cc5F)n4)CC3)n(C[C@@H]3CCO3)c2c1 | 22 ng/mL | 0.42 h | 0.059 nM | 67 ng·h/mL | 6.68 h | 1230 mL/min/kg | 3.63% | 88.9% | 57.9% | 4.53% | 74% |  |
| O=C(O)c1cc(F)c2nc(CN3CC=C(c4cccc(OCc5ccc(C6CC(F)(F)C6)cc5F)n4)CC3)n(C[C@@H]3CCO3)c2c1 |  |  | 0.016 nM |  |  |  |  | 82.2% | 45.4% |  | 58.7% |  |
| COc1cc(C(=O)O)cc2c1nc(CN1CC=C(c3cccc(OCc4ccc(C5CC(F)(F)C5)cc4F)n3)CC1)n2C[C@@H]1CCO1 | 31.5 ng/mL | 0.92 h | 0.012 nM | 84 ng·h/mL | 2.41 h | 1040 mL/min/kg | 2.43% | 92.3% | 69.4% |  | 68.3% |  |

Further lines, with some results ahead:

| Cmax [1] | Tmax at 24 h [2] | EC50 [3] | AUC(0-inf) [4] | half-life [7] | CL/F [8] | Fa at 24 h [9] | Activity [11] | Activity ([10]; filed as agonist) | Structure (SMILES) | inhibition at 1 µM [5] | inhibition at 10 µM [6] | further results |
| --- | --- | --- | --- | --- | --- | --- | --- | --- | --- | --- | --- | --- |
| 133 ng/mL | 0.36 h | 0.085 nM | 149 ng·h/mL | 4.27 h | 601 mL/min/kg | 10.8% |  |  | O=C(O)c1ccc2nc(CN3CCC(Oc4cccc(COc5ccc6cnn(CC(F)F)c6c5)n4)CC3)n(C[C@@H]3CCO3)c2n1 | -0.55% | 2.69% |  |
| 256 ng/mL | 2.67 h | 0.048 nM | 1380 ng·h/mL | 3.32 h | 65.8 mL/min/kg | 54.2% | 71.2% |  | O=C(O)c1ccc2nc(CN3CC=C(c4cccc(OCc5ccc(C6CC(F)(F)C6)cc5F)n4)CC3)n(C[C@@H]3CCO3)c2n1 | 0.6% | 37.6% | Activity [12]: Dose-dependent-effect; EC50 [13]: 864 nM; Activity [10]: 35.5%; Activity [14]: Active; EC50 [15]: 22.7 nM; EC50 [16]: > 20000 nM; EC50 [17]: > 20000 nM; Activity [18]: Active; EC50 [19]: > 20000 nM; EC50 [20]: 2020 nM |
| 24.1 ng/mL | 0.67 h | 0.047 nM | 182 ng·h/mL | 10.5 h | 458 mL/min/kg | 28.5% |  |  | O=C(O)c1ccc2nc(CN3CCC(Oc4cccc(Cc5ccc(Cl)c6c5OCC6)n4)CC3)n(C[C@@H]3CCO3)c2n1 | 0.7% | 5.1% |  |
| 38.3 ng/mL | 0.19 h | 0.085 nM | 31.4 ng·h/mL | 2.95 h | 2210 mL/min/kg | 2.2% |  |  | O=C(O)c1ccc2nc(CN3CCC(Oc4cccc(COc5ccc6cnn(CC(F)F)c6c5F)n4)CC3)n(C[C@@H]3CCO3)c2n1 | 5.1% | 14.2% |  |
| 130 ng/mL | 1.33 h |  | 655 ng·h/mL | 3.61 h | 135 mL/min/kg | 35.1% | 81.9% | 44.9% | N#Cc1ccc(COc2cccc(C3CCN(Cc4nc5ccc(C(=O)O)cc5n4C[C@@H]4CCO4)CC3)n2)c(F)c1 [DANUGLIPRON] | 8.4% | 69.7% | Activity [21]: Active; Activity [22]: Active |
|  |  | 0.081 nM |  |  |  |  | 66.6% |  | O=C(O)c1ccc2nc(CN3CCN(c4cccc(OCc5ccc(C6CC(F)(F)C6)cc5F)n4)CC3)n(C[C@@H]3CCO3)c2c1 |  |  | Activity [10]: 19.9% |
